What is called Ki is a dissociation constant, usually derived from enzyme kinetics or from competition with a known ligand.

Counter-ions that a name gives are not always drawn. Like-named read-outs stand apart in the source and are kept apart here.

Assay [1] is described as follows: Competitive ligand binding assay on DS-MIP with S as fluorescent probe. The conditions noted are these: 25 mg polymer, S 5.90 μM, 5 mL 4:1 methanol/water, 28 ± 1 °C, mean ± SD, n = 3. The procedure:
(§1) In this study, DS-MIP was employed as the sorbent phase for the determination of binding characteristics of the ergot family of alkaloids by competitive ligand binding assay experiment. The ability of the various ergot alkaloids (ergocryptine, ergocornine, ergocristine, ergonovine, agroclavine, pergolide and terguride) to displace bound D and S from the binding sites was measured. Figures 8(a,b) show competitive binding assays with the ergots in the presence of D and S as fluorescent probes. The typical sigmoid calibration curves were obtained for both the D ligand and the S ligand. […] Clearly, the ergot derivatives are able to act as competitors at the DS-MIP binding sites.
(§2) Figure 8. Plots of the ratio of the normalized signal (B/Bî) for MIP to that obtained for NIP against the logarithm of the ergot concentrations for the competitive ligand binding assay using DS-MIP as adsorbent phase and (a) D and (b) S as a fluorescent probe. The values shown are mean ± SD of three replicate specimens.
(§3) Seven ergoline compounds (ergocryptine, ergocristine, ergocornine, ergonovine, agroclavine, pergolide and terguride) were assessed for their ability to displace D or S bound to DS-MIP. DS-MIP or NIP particles (25 mg) were mixed with 6.25 μg of either D (or S) and varying amounts of ergot (final concentration: 0.02 - 500 μg/mL or 0.03 - 890.20 μM) in the suspension solvent (4:1, v/v methanol/water) up to a final volume of 5 ml. The mixture was incubated for 8 h at room temperature, maintaining constant stirring. The changes in fluorescence intensity of D probe in solution were monitored at 320 nm following excitation at 279 nm; for the S probe in solution, monitoring was at 335 nm after excitation at 300 nm. The experimental signals were normalized as: B/Bî, where B is the fluorescence intensity measured in the presence of increasing ergot concentrations and Bî is the signal in the absence of the ergot compound. The ratio of the normalized signal for MIP to that obtained for NIP was plotted as a function of the logarithm of the competitor concentration. Statistical analysis of concentration-response curves was performed by using the computer program GraphPad software, which calculates the lower and upper plateaus, the slope, and the IC50, concentration of an inhibitor producing 50% inhibition. An apparent inhibition constant (Ki) value was calculated using eq (3): (3) Ki=IC50/(1+[L]/Kd) where Ki = apparent inhibitor constant, [L] = free concentration of dopamine or serotonin, and Kd = apparent dissociation constant of a given MIP for D (or S). All experiments were performed in triplicate.

Assay [2] concerns the target dopamine receptors derived from rat hypothalamus. The assay can be described thus: Displacement of D probe from natural receptor. The conditions noted are these: 10 mg protein, 0.25 μmole D in 1 mL (250 μM), 37 °C, mean ± SD, n = 4; read-out: Ki, D ligand, Rat hypothalamus. The assay is classed as binding, male-Wistar rat. How it is done:
(§4) The equilibrium binding constants of the ergots on dopamine and serotonin receptors derived from rat hypothalamus was examined in a displacement assay using the added D and S as the molecular probes. The male-Wistar rat hypothalami receptors were isolated using a previously described procedure. The receptor pellets were washed with 50 mM Tris HCl until the endogenous D and S are no longer found in the rinse as examined by the fluorescence method described in the binding study. The pellets were then re-suspended in 50 mM Tris HCl with 0.5 mM Na2EDTA, 0.1% Na ascorbate before use. The protein content of the receptor pellets was verified by using the procedure of Bradford. Saturation experiments for the rat hypothalamus receptor were carried out by varying the concentration of D or S ligand in a 50 mM Tris HCl with 0.5 mM Na2EDTA and 0.1% Na ascorbate solution at 37 °C. The D and S binding at various concentrations was determined, using the fluorescence spectroscopic method for assay of the unbound probe as in the binding study.
(§5) The ability of 6–8 concentrations of test ergot (0.1–500 μg/mL or 0.16–890.20 μM) for typical profiles) to displace 0.25 μmole D and S probes was measured in drug displacement studies. […] To examine the equilibrium binding constant for the ergots, the unbound D and S probes was measured by fluorescence spectroscopy with the use of cation exchange resin to separate the protein bound and unbound probes. All experiments were performed four times using 50 mM Tris HCl with 0.5 mM Na2EDTA, 0.1% Na ascorbate as the medium, to which 10 mg of protein was added giving a final volume of 1 mL. The tubes were allowed to equilibrate for 30 min at 37 °C before filtering with a 0.45 μm cellulose acetate syringe filter (Whatman, NJ, USA) and were washed with two 5 mL ice-cold Tris-buffer. The filters were lyophilized and analysed for free probes. The supernatant aliquots were then passed through small columns of Amberlite CG-50 as previously reported. The 3 mL of formic acid-ethanol (1:3, v/v) eluates containing the analytes were evaporated to dryness in a polyethylene vial and the residues reconstituted with methanol (5 mL) before assay using fluorescence spectrometry. The binding of D and S probes in the presence of the ergots was calculated and plotted to the ergot concentrations for determination of IC50. An apparent Ki value was calculated in the same manner as described for the competitive ligand binding assay with DS-MIP.

Assay [3] is described as follows: Competitive ligand binding assay on DS-MIP with D as fluorescent probe. The conditions noted are these: 25 mg polymer, D 6.60 μM, 5 mL 4:1 methanol/water, 28 ± 1 °C, mean ± SD, n = 3. The procedure:
as §1, §2, §3

The nature of assay [4]: Time course of binding of ergot compounds to DS-MIP (HPLC-ECD assay). The conditions noted are these: 4:1 (v/v) methanol/water, 28 ± 1 °C. The procedure: The specificity of binding of a group of ergoline derivatives (ergocryptine, ergocornine, ergocristine, ergonovine, agroclavine, pergolide and terguride) to DS-MIP was assessed in 4:1 (v/v) methanol/water at room temperature (28 ± 1 °C). The binding of all the ergots to DS-MIP reached a constant value within 3 h, with ~50% of the DS-MIP-analyte complex being formed by 1 h (Figure 7). […] Based on the specific binding of the ergots to DS-MIP, the tested ergots are readily distinguished into three groups, based on their chemical structures. All of the ergot derivatives tested had typical four fused rings, indolyl amine, piperidinyl amine, and N-methyl and heteroatom-containing alkylpiperidinyl substituents (except pergolide with the N-propyl substituent). The differential binding of the ergot derivatives is probably a consequence of the interaction of the piperidinyl and indolyl amines with acidic and amide functions within the polymer. The orientation of functional entities within the D and S imprinted cavities was not optimal to complement the ergot derivatives, but they existed in sufficient numbers to produce the observed binding effect.
Figure 7. Time course for the binding of ergot compounds to DS-MIP at room temperature (28 ± 1 °C). Binding studies were conducted in 4:1 (v/v) methanol/water using 12.5 mg of polymer and 12.5 μg of each ergot in a final volume of 5 mL (4.1–10.5 μM). At equilibrium, analytes were quantitated in the filtrate by chromatographic assays as described in the Experimental Section. The values shown are mean ± SD of three replicate specimens.
The binding reactivities of ergocryptine, ergocristine, ergocornine, ergonovine, agroclavine, pergolide and terguride, in an incubation medium were evaluated using a chromatographic assay. Briefly, DS-MIP particulates (2.5 mg/mL) were incubated between 0 and 13 h in 10-mL vials at room temperature by agitation with each ergot compound (2.5 μg/mL, 4.1–10.5 μM) in methanol/water (5 mL, 4:1, v/v). At pre-determined time intervals, the filtrate was analysed for the amount of unbound substance by HPLC (see below). The percentage of ergot bound to the polymer was plotted as a function of the incubation time. Each experiment was repeated three times.
A reversed phase HPLC-ECD detection method was used for assay of the ergots. A mobile phase comprising of a buffer (pH 7.4) and methanol (34:66, % v/v) was used for elution. The buffer composition was as follows: 15 mM KH2PO4, 3.75 mM sodium heptanesulfonate and 7.5 mM KCl aqueous solution adjusted to pH 7.4 by phosphoric acid. The analytical column was a Luna 5μ C18, 25 cm × 0.46 cm (Phenomenex, CA, USA). A flow-rate of 1.0 mL/min was used. The electrochemical detector was set at 0.8 V potential. Correlation coefficients for calibration curves for the ergots in the range 2–25 μg/mL ([…]) were greater than 0.999. The sensitivity of detection was about 1.0 μg/mL (1.64–4.20 μM) and the reproducibility of the peak areas of analytes was more than 95%.

Assay [5] addresses serotonin receptors derived from rat hypothalamus. Description: Displacement of S probe from natural receptor. Type of assay: binding, male-Wistar rat. The conditions noted are these: 10 mg protein, 0.25 μmole S in 1 mL (250 μM), 37 °C, mean ± SD, n = 4; read-out: Ki, S ligand, Rat hypothalamus. The procedure:
as §4, §5

Assay [6] in a line: 1H-NMR titration of template/functional monomer complexation. The assay is classed as binding. The conditions noted are these: 1:1 complex of D with single monomer, d6-DMSO, 25 °C. From the text: A mixture of methanol and water (4:1, v/v) was chosen as the porogen solvent for the D and S templates, as the hydrochloride salts were soluble only in polar solvents. The strength and positioning of the monomer-template interactions are of importance in developing materials with good molecular recognition properties. For the current work, the functional monomers and cross-linker had been constructed into the MIP structure with a view toward obtaining an efficient recognition system in a polar medium. MAA and ACM were generally used as functional monomers for the imprinting process. Both D and S have a phenolic hydroxyl and the nitrogen atom(s) of the amine group(s) acts as a hydrogen donor-acceptor moiety for binding functional monomers with a corresponding hydrogen bonding pattern. […] However, the huge excess of water and methanol that would be form H-bonds in competition with template and monomer, would reduce binding energy between template and monomer. […] The MBAA cross-linker also forms hydrogen bonds with the carboxylic acid and amino groups of the templates. Figure 2 illustrates the dual dopamine/serotonin molecular recognition site generation in this work.
The change in chemical shifts of proton resonances as a function of D (or S) concentrations was studied in DMSO-d6.

Assay [7] has as its system dopamine receptors derived from rat hypothalamus. The conditions noted are these: D ligand, 50 mM Tris HCl, 37 °C, mean ± SD, n = 3. The procedure: as §4

On to `CC1=C[C@@H]2c3cccc4[nH]cc(c34)C[C@H]2N(C)C1` [Agroclavine, agroclavine], for which the Ki in assay [1] amounted to 5.31 ± 0.22 µM; in assay [2], 1.5 ± 0.2 nM; in assay [3], 0.4 ± 0.01 µM; in assay [5], 0.0012 ± 0.0001 µM. Further, the “binding with DS-MIP” value in assay [4] (DS-MIP 2.5 mg/mL, ergot 2.5 μg/mL) came out at 70%.
Turning to `NCCc1ccc(O)c(O)c1` [D, Dopamine hydrochloride], the Kd in assay [6] (read-out: apparent dissociation constant (app. Kdiss) of complex with ACM) came out at 1980 ± 100 µM; in assay [6] (read-out: apparent dissociation constant (app. Kdiss) of complex with MAA), 2120 ± 200 µM; in assay [7] (read-out: dissociation constant (Kd)), 0.00053 ± 0.00015 µM. Moreover, the “receptor binding (Bmax)” value in assay [7] amounted to 1.50 ± 0.09 pmol/mg protein.
With `CC(C)[C@H]1C(=O)N2CCC[C@H]2[C@]2(O)O[C@](NC(=O)[C@@H]3C=C4c5cccc6[nH]cc(c56)C[C@H]4N(C)C3)(C(C)C)C(=O)N12` [Ergocornine, ergocornine], the Ki in assay [1] came to 27.2 ± 0.78 µM; in assay [2], 10.4 ± 0.2 nM; in assay [3], 217 ± 2.59 µM; in assay [5], 0.02 ± 0.0001 µM. Also, the “binding to DS-MIP, fold lower than agroclavine” value in assay [4] was “about 2 fold”.
Take `CC(C)[C@@]1(NC(=O)[C@@H]2C=C3c4cccc5[nH]cc(c45)C[C@H]3N(C)C2)O[C@@]2(O)[C@@H]3CCCN3C(=O)[C@H](Cc3ccccc3)N2C1=O` [Ergocristine, ergocristine]: the Ki in assay [1] is 19.3 ± 0.6 µM; in assay [2], 7.6 ± 0.1 nM; in assay [3] it was 141 ± 1.47 µM; in assay [5], 0.0068 ± 0.0002 µM. In addition, the “binding to DS-MIP, fold lower than agroclavine” value in assay [4] was “about 2 fold”.
For `CC(C)C[C@H]1C(=O)N2CCC[C@H]2[C@]2(O)O[C@](NC(=O)[C@@H]3C=C4c5cccc6[nH]cc(c56)C[C@H]4N(C)C3)(C(C)C)C(=O)N12` [Ergocryptine, ergocryptine], the inhibition constant Ki is 24.9 ± 0.69 µM in assay [1], 2.8 ± 0.2 nM in assay [2], 124.9 ± 1.22 µM in assay [3] and 0.01 ± 0.0004 µM in assay [5]. Besides, the “binding to DS-MIP, fold lower than agroclavine” value in assay [4] is recorded as “about 2 fold”.
For `C[C@@H](CO)NC(=O)[C@@H]1C=C2c3cccc4[nH]cc(c34)C[C@H]2N(C)C1` [Ergonovine, ergonovine maleate], in that order: 14.7 ± 0.29 µM, 2.5 ± 0.1 nM, 69.57 ± 0.51 µM, 0.0012 ± 0.0001 µM and ~ 1.25 fold.
As for `CCCN1C[C@H](CSC)C[C@@H]2c3cccc4[nH]cc(c34)C[C@H]21` [Pergolide, pergolide mesylate], the inhibitory constant (Ki) in assay [1] amounted to 12.78 ± 0.09 µM; in assay [2] it was 0.7 ± 0.1 nM; in assay [3] it was 0.2 ± 0.01 µM; in assay [5], 0.006 ± 0.0002 µM. In addition, the “binding to DS-MIP, fold lower than agroclavine” value in assay [4] was ~ 1.25 fold.
For the compound `CCN(CC)C(=O)N[C@H]1C[C@@H]2c3cccc4[nH]cc(c34)C[C@H]2N(C)C1` [Terguride, terguride], the Ki came to 7.79 ± 0.17 µM in assay [1], 0.03 ± 0.005 nM in assay [2], 0.14 ± 0.01 µM in assay [3] and 0.0013 ± 0.0001 µM in assay [5]. Moreover, in assay [4], the “binding to DS-MIP, fold lower than agroclavine” value is recorded as ~ 1.25 fold.

Values taken from article PMC2635646, “Recognition Properties and Competitive Assays of a Dual Dopamine/Serotonin Selective Molecularly Imprinted Polymer” (International Journal of Molecular Sciences, 2008).
